# Test results as given in patent US11000033B2, “Ketone or oxime compound, and herbicide” (NISSAN CHEMICAL CORPORATION, priority 2014, dated 2021).
# Tests used:
# Assay type in all cases: in vivo
# Lolium multiflorum Lam. [1] = experiment: Test Example 4: herbicidal effect by soil treatment (symbol K); conditions: application herbicide amount 320 g/ha
# Procedure, shortened: (§1)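 Seeds were sown in sterilized diluvial soil, covered with about 1.5 cm of soil, and the soil surface was sprayed with a water-diluted emulsion of the compound at a predetermined rate. Plants grew in a greenhouse at 25° C. to 30° C.; effects were scored visually 3 weeks after application.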
# transplanted rice plant = experiment: Test Example 1: effect on crop, application before weed generation in submerged conditions (symbol a); conditions: application herbicide amount 320 g/ha
# Procedure, shortened: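 Rice at 2.5 leaf stage transplanted into submerged soil (4 cm depth) sown with three weed species; herbicide applied before weed emergence.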
# soybean = experiment: Test Example 4: effect on crop by soil treatment (symbol d); conditions: application herbicide amount 320 g/ha
# Procedure, shortened: (§2)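 Crop seed is sown in spots together with several weed species in a box of sterilized diluvial soil. It is covered by about 1.5 cm of soil and kept in a greenhouse held between 25° C. and 30° C.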
# rice = experiment: Test Example 4: effect on crop by soil treatment (symbol b); conditions: application herbicide amount 320 g/ha
# Procedure, shortened: as §2
# Amaranthus retroflexus = experiment: Test Example 5: herbicidal effect by foliage application, plastic box (symbol N); conditions: 320 g/ha, 3 weeks after application
# Procedure, shortened: (§3)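 Emulsion formulation, diluted with water to the intended rate, was applied uniformly to leaves by small sprayer. Recipients were 14-day greenhouse-grown seedlings (25° C. to 30° C.). Assessment followed at 3 weeks.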
# rice plant = experiment: Test Example 5: effect on crop by foliage application, plastic box (symbol b); conditions: 320 g/ha, 3 weeks after application
# Procedure, shortened: (§4)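 Sterilized diluvial soil, plastic box (21 × 13 × 7 cm); spot sowing, ~1.5 cm soil cover; greenhouse 25–30° C.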
# [2] = system: directly sowed rice plant; experiment: Test Example 3: effect on crop by foliage application, Wagner pot (symbol b); conditions: application herbicide amount 320 g/ha
# Procedure, shortened: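 Steps: fill a 1/10000-are Wagner pot with alluvial soil; add water and mix to submerge at 0.1–0.5 cm depth; sow rice plus Echinochloa crus-galli var. crus-galli, Leptochloa chinensis and Cyperus difformis; grow in a 25–30 °C greenhouse.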
# Lolium multiflorum Lam. [3] = experiment: Test Example 5: herbicidal effect by foliage application, plastic box (symbol K); conditions: 320 g/ha, 3 weeks after application
# Procedure, shortened: as §3
# Abutilon theophrasti = experiment: Test Example 5: herbicidal effect by foliage application, plastic box (symbol M); conditions: 320 g/ha, 3 weeks after application
# Procedure, shortened: as §3
# corn = experiment: Test Example 5: effect on crop by foliage application, plastic box (symbol c); conditions: 320 g/ha, 3 weeks after application
# Procedure, shortened: as §4
# Alopecurus myosuroides = experiment: Test Example 5: herbicidal effect by foliage application, plastic box (symbol J); conditions: 320 g/ha, 3 weeks after application
# Procedure, shortened: as §3
# Chenopodium album = experiment: Test Example 4: herbicidal effect by soil treatment (symbol O); conditions: application herbicide amount 320 g/ha
# Procedure, shortened: as §1
# [4] = system: Echinochloa crus-galli var. crus-galli; experiment: Test Example 5: herbicidal effect by foliage application, plastic box (symbol H); conditions: 320 g/ha, 3 weeks after application
# Procedure, shortened: as §3
# Monochoria vaginalis = experiment: Test Example 1: herbicidal activity, application before weed generation in submerged conditions (symbol C); conditions: application herbicide amount 320 g/ha
# Procedure, shortened: (§5)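 In a flooded pot test with alluvial soil, the emulsion-formulated compound was diluted with water to a predetermined amount and applied to the floodwater immediately on the sowing day. Pots were held in a greenhouse at 25–30 °C for 3 weeks before each weed was rated.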
# [5] = system: Echinochloa oryzacola Vasing.; experiment: Test Example 1: herbicidal activity, application before weed generation in submerged conditions (symbol A); conditions: application herbicide amount 320 g/ha
# Procedure, shortened: as §5
# Digitaria ciliaris = experiment: Test Example 5: herbicidal effect by foliage application, plastic box (symbol F); conditions: 320 g/ha, 3 weeks after application
# Procedure, shortened: as §3
SMILES,"Herbicidal effect grade, K: Lolium multiflorum Lam. (Lolium multiflorum Lam. [1])","Effect grade on crop, a: transplanted rice plant (transplanted rice plant)","Effect on crop grade, d: soybean (soybean)","Effect on crop grade, b: directly sowed rice plant (rice)","N: Amaranthus retroflexus, herbicidal effect (criteria of Test Example 1) (Amaranthus retroflexus)","b: directly sowed rice plant, effect on crop (criteria of Test Example 1) (rice plant)","effect on crop b (directly sowed rice plant), grade 0-5 [2]","K: Lolium multiflorum Lam., herbicidal effect (criteria of Test Example 1) (Lolium multiflorum Lam. [3])","M: Abutilon theophrasti, herbicidal effect (criteria of Test Example 1) (Abutilon theophrasti)","c: corn, effect on crop (criteria of Test Example 1) (corn)","J: Alopecurus myosuroides, herbicidal effect (criteria of Test Example 1) (Alopecurus myosuroides)","Herbicidal effect grade, O: Chenopodium album (Chenopodium album)","H: Echinochloa crus-galli var. crus-galli, herbicidal effect (criteria of Test Example 1) [4]","Herbicidal effect grade, C: Monochoria vaginalis (Monochoria vaginalis)","Herbicidal effect grade, A: Echinochloa oryzacola Vasing. [5]","F: Digitaria ciliaris, herbicidal effect (criteria of Test Example 1) (Digitaria ciliaris)"
CON=C(C)CC1CC(O)=C(c2c(C)cc(-c3ccc(F)c(Cl)c3)cc2C)C1=O (stereo not shown) [6-085],5 (Herbicidal ratio of 90% or more (almost completely withered)),5 (Herbicidal ratio of 90% or more (almost completely withered)),5 (Herbicidal ratio of 90% or more (almost completely withered)),1 (Herbicidal ratio of 5% or higher and lower than 20%),3 (Herbicidal ratio of 40% or higher and lower than 70%),5 (Herbicidal ratio of 90% or more (almost completely withered)),5 (Herbicidal ratio of 90% or more (almost completely withered)),5 (Herbicidal ratio of 90% or more (almost completely withered)),4 (Herbicidal ratio of 70% or higher and lower than 90%),3 (Herbicidal ratio of 40% or higher and lower than 70%),5 (Herbicidal ratio of 90% or more (almost completely withered)),5 (Herbicidal ratio of 90% or more (almost completely withered)),5 (Herbicidal ratio of 90% or more (almost completely withered)),0 (Herbicidal ratio of 5% or lower (almost no effect)),5 (Herbicidal ratio of 90% or more (almost completely withered)),5 (Herbicidal ratio of 90% or more (almost completely withered))
CON=C(C)CC1CC(OC(=O)C(C)CSC)=C(c2c(C)cc(-c3ccc(Cl)cc3)cc2C)C1=O (stereo not shown) [6-086],5 (Herbicidal ratio of 90% or more (almost completely withered)),5 (Herbicidal ratio of 90% or more (almost completely withered)),5 (Herbicidal ratio of 90% or more (almost completely withered)),1 (Herbicidal ratio of 5% or higher and lower than 20%),0 (Herbicidal ratio of 5% or lower (almost no effect)),5 (Herbicidal ratio of 90% or more (almost completely withered)),5 (Herbicidal ratio of 90% or more (almost completely withered)),5 (Herbicidal ratio of 90% or more (almost completely withered)),3 (Herbicidal ratio of 40% or higher and lower than 70%),3 (Herbicidal ratio of 40% or higher and lower than 70%),5 (Herbicidal ratio of 90% or more (almost completely withered)),3 (Herbicidal ratio of 40% or higher and lower than 70%),5 (Herbicidal ratio of 90% or more (almost completely withered)),0 (Herbicidal ratio of 5% or lower (almost no effect)),5 (Herbicidal ratio of 90% or more (almost completely withered)),5 (Herbicidal ratio of 90% or more (almost completely withered))
CON=C(C)CC1CC(O)=C(c2c(C)cc(-c3cc(Cl)cc(Cl)c3)cc2C)C1=O (stereo not shown) [6-087],3 (Herbicidal ratio of 40% or higher and lower than 70%),2 (Herbicidal ratio of 20% or higher and lower than 40%),3 (Herbicidal ratio of 40% or higher and lower than 70%),0 (Herbicidal ratio of 5% or lower (almost no effect)),0 (Herbicidal ratio of 5% or lower (almost no effect)),1 (Herbicidal ratio of 5% or higher and lower than 20%),5 (Herbicidal ratio of 90% or more (almost completely withered)),4 (Herbicidal ratio of 70% or higher and lower than 90%),0 (Herbicidal ratio of 5% or lower (almost no effect)),0 (Herbicidal ratio of 5% or lower (almost no effect)),4 (Herbicidal ratio of 70% or higher and lower than 90%),0 (Herbicidal ratio of 5% or lower (almost no effect)),5 (Herbicidal ratio of 90% or more (almost completely withered)),0 (Herbicidal ratio of 5% or lower (almost no effect)),5 (Herbicidal ratio of 90% or more (almost completely withered)),5 (Herbicidal ratio of 90% or more (almost completely withered))
CON=C(C)CC1CC(O)=C(c2c(C)cc(-c3ccc(Cl)cc3Cl)cc2C)C1=O (stereo not shown) [6-088],5 (Herbicidal ratio of 90% or more (almost completely withered)),3 (Herbicidal ratio of 40% or higher and lower than 70%),5 (Herbicidal ratio of 90% or more (almost completely withered)),0 (Herbicidal ratio of 5% or lower (almost no effect)),0 (Herbicidal ratio of 5% or lower (almost no effect)),5 (Herbicidal ratio of 90% or more (almost completely withered)),5 (Herbicidal ratio of 90% or more (almost completely withered)),5 (Herbicidal ratio of 90% or more (almost completely withered)),3 (Herbicidal ratio of 40% or higher and lower than 70%),2 (Herbicidal ratio of 20% or higher and lower than 40%),5 (Herbicidal ratio of 90% or more (almost completely withered)),5 (Herbicidal ratio of 90% or more (almost completely withered)),5 (Herbicidal ratio of 90% or more (almost completely withered)),0 (Herbicidal ratio of 5% or lower (almost no effect)),4 (Herbicidal ratio of 70% or higher and lower than 90%),5 (Herbicidal ratio of 90% or more (almost completely withered))
